The test system of the assay is Sodium-dependent phosphate transport. In words: Phosphate uptake assay in human proximal tubule cells (32P-labelled inorganic phosphate uptake). In kind it is cell-based. Conditions: whole cell assay, 32P uptake. On the procedure:
Sodium-dependent phosphate transport inhibition is determined by the ability of the test compound to inhibit the uptake of radio-labeled inorganic phosphate by proximal tubule cells. Appropriate cells from human, rabbit, or rat may be used.
Cell Preparation and Phosphate Uptake Assay.
Rabbit proximal tubule cells were isolated and cultured according to the procedure of Sakhrani, L. M. et al., Am. J. Physiol. 246:F757-F764, (1984) whose disclosure is incorporated herein by reference in its entirety. Human proximal tubule cells were purchased from Clonetics (San Diego, Calif.) and grown according to the suppliers' instructions. On the day of the experiment, cells were harvested from culture plates with 0.5 mM EDTA in phosphate buffered saline. The cells were washed twice in uptake buffer (see below) and equilibrated at 37 C in the same buffer for 30 minutes. Aliquots of cells (100 ul, 0.5 to 1 million cells) were distributed into glass test tubes. Fifty ul of drug solution or buffer were added followed by 50 ul of uptake buffer containing 100 uM [^32P]-K2HPO4 (0.5 to 1 uCi/tube).After varying periods of time (usually 4 minutes) at 37 C, uptakes were stopped with 4 ml of cold stop solution (see below) and the cells were washed 3 times in this solution by centrifugation. The pelleted cells were dissolved in 0.5 ml 1 N NaOH and ^32P was counted in a liquid scintillation counter. Phosphate uptake is expressed as pmol phosphate/mg cell protein.
In the above noted whole cell assay system for rabbit and human proximal tubule cells the cells are harvested by filtration and ^32P uptake is measured. It is also possible to use ^33P rather than ^32P.

For orientation: IC50 means the concentration at which inhibition is half-maximal. The low end stands for higher potency, the high end for lower potency. The molecule `O=C(Nc1ccc(Br)cc1)c1cc(Br)ccc1NS(=O)(=O)c1ccc(Cl)s1` [5-bromo-N-(4-bromophenyl)-2-(5-chloro-2-thienylsulfonamido)benzamide] yielded an IC50 of 12 µM.

In turn, `O=C(Nc1ccc(Br)cc1)c1cc(Br)ccc1NS(=O)(=O)CCCCl` [5-bromo-N-(4-bromophenyl)-2-(3-chloropropylsulfonamido)benzamide] yielded an IC50 of 14 µM.

Regarding `O=C(Nc1ccc(Br)cc1)c1cc(Br)ccc1NS(=O)(=O)c1ccccc1F` [5-bromo-N-(4-bromophenyl)-2-(2-fluorophenylsulfonamido)benzamide], the IC50 was 15 µM.

For the origin of these results see patent publication US20030212074A1, “Phosphate transport inhibitors” (priority 2000, published 2003).
